A short description of test [1]: Immobilized metal affinity chromatography of phage on Zn(II)-IDA. Conditions: for relative retention by Zn(II)-IDA: comparison of four clones. Type of test: binding. The procedure:
The TSAR-9 random peptide library was subjected to IMAC chromatography as follows: 0.5 ml bed volume iminodiacetic acid (IDA) Sepharose (Sigma Chemical Co.) columns were washed with 1 ml of sterile doubly distilled (dd) H2 O, charged with 5 ml of 10 mM ZnCl2 in dd H2 O followed by 3 ml sterile dd H2 O and equilibrated with 10 ml 10 mM Tris-HCl, 150 mM NaCl, 0.1% Tween-20, pH 7.5 (T10NT) to prepare the Zn(II) IDA column. 10^12 pfu of the TSAR-9 random peptide library were passed over the Zn(II) IDA column and washed with 10 ml T10NT. Bound phage were eluted with 500 μl 200 mM glycine-HCl, pH 2.2 and the pH was then neutralized with 500 μl 1 M phosphate buffer, pH 7.5+1 ml T10NT. Eluted phage were subjected to two further rounds of selection and the resulting population was amplified by overnight growth on a lawn of E. coli DH5αF'.
To quantitate the relative binding of the Zn(II)-IDA selected TSARs, each TSAR encoding phage was chromatographed over Zn(II)-IDA. Three fractions were collected and titered for phage: wash (unbound), elution (bound, eluted), and column (bound, not eluted).
The binding specificity of a number of the identified Zn-binding proteins was evaluated by chromatography using IDA columns charged with Zn^+2, Cu^+2 or Ni^+2. A particular Zn-binding phage (10×10^11 pfu) in 1 ml of 100 mM Tris-HCl, 150 mM NaCl, 0.1% Tween-20, pH 7.5 (T100NT) was loaded onto a Zn(II)-, Cu(II)- or Ni(II)-IDA column and the columns were washed as described above, except that T100NT was substituted for T10NT. The columns were eluted with acid; Zn^+2 (2 ml 100 mM ZnCl2 in T1OONT, pH 7.5), or imidazole (2 ml 100 mM imidazole in T100NT, pH 7.5). Three fractions were collected and titered for the presence of phage: the wash fraction (.box-solid.), the elution fraction and the metal II-IDA column matrix resuspended in T10NT (.quadrature.).Results obtained are shown in FIG. 16 A and B.

Another test has as its system C46 monoclonal antibody. The test can be described thus: Competition of CEA with phage for binding to immobilized C46 antibody. Details: species or system mouse. The note with it: CEA 1, 25, 250, 2500 ng; FIG. 17. The procedure: Microtiter dish wells were coated with 50 μl of the C46 monoclonal antibody (5 μg/ml in 100 mM NaHCO3, pH 8.5) for 2 hr at 4° C. To the wells, 50 μl of BSA (1 mg/ml in 100 mM NaHCO3, pH 8.5) were added and the wells incubated for 30 min. at room temperature. The wells were washed (5×) with PBS-0.05% Tween 20.
To each well was added either 25 μl of C46-binding phage (C46.9-1 or C46.9-2) and increasing amounts of highly purified CEA (1, 25, 250, 2500 ng) (Scripps Clinic). After 2 hr incubation at room temperature, the wells were washed (10×) with PBS-0.05% Tween 20. 25 μl of 200 mM glycine-HCl (pH 2.2) were then added to the wells and they were incubated at room temperature for 5 min. The liquid was then transferred to new microtiter dish wells that contained 50 μl of 1M NaHPO4. The contents of the well were then serially diluted and aliquots were plated to count plaques.

Another test deals with 7E11-C5 antibody. The test can be described thus: Relative affinity: phage binding to microtiter plates coated with differing amounts of 7E11-C5. Details: species or system mouse. The note with it: plates coated with 0, 4, 20, 100 and 500 ng antibody. Here is the method: The relative affinity of the different 7E11-C5 binding TSARs for the 7E11-C5 antibody was compared. Microtiter plates were coated with differing amounts of the antibody (i.e., 0, 4, 20, 100 and 500 ng) prior to phage binding. Our prediction was that the TSAR with the highest affinity for the antibody would still bind effectively to wells coated with lower amounts of antibody. […] These TSARs all have Y as the second amino acid in the motif. The next class of TSARs bound ~2-fold less well; as represented by 12-2, which also had Y as the second amino acid. Three TSARs bound 5-10 fold less well than the best binders as represented by 9-2, 9-4, and 12-4; their inserts had W or H at the second position of the motif. Finally, TSAR 12-3 bound 50-fold less well than the best binders; this TSAR has I and R in the second and sixth positions, respectively. Thus, it seems that the 7E11-C5 epitope can be mimicked by a linear peptide sequence that has both variant and invariant residues.

Test [2] concerns 7E11-C5 monoclonal antibody. The test can be described thus: Competitive binding ELISA: inhibition of 7E11-C5 binding to LNCaP cell lysate antigen. Details: species or system mouse. Conditions: for inhibition of 7E11-C5 binding to its antigen by phage: phage 6.3×10^7 to 6.3×10^11 pfu, 7E11-C5 30 ng/ml. Here is the method: Each well of a polyvinylchloride 96-well ELISA plate (Cooke, Alexandria, Va.) was coated with an LNCAP human prostate carcinoma cell (ATCC # CRL 1740) lysate. Lysates were prepared by harvesting confluent LNCaP cell cultures, resuspending cells in 4 volumes of 1 mM MgCl2 for 5 minutes, mixing with 2 μg of DNase (Boehringer Mannheim, Indianapolis, Ind.) and homogenizing using 40 strokes in a Dounce homogenizer (Wheaton, Millville, N.J.). LNCaP lysate (50 μl per well of a 1:50 dilution in 0.1×PBS [Dulbecco's pH 7.2, JRH, Denver, Pa.]) was air dried overnight at 37° C. onto wells of the ELISA plate. ELISA plates were blocked with 150 μl/well of 1% BSA (Pentex Fraction V, Miles, Kankakee, Ill.) in PBS for 60 minutes at room temperature.
The blank control consisted of blocking solution in the absence of primary antibody. 7E11-C5 monoclonal antibody pre-incubated with buffer without any phage (MAb) was the positive control. The expression vector m663 phage was also employed as a non-specific phage control.
Plates were washed 4 times with 0.05% Tween-20 in PBS. Bound monoclonal antibody 7E11-C5 was detected by: (1) incubating with 50 μl/well of anti-mouse IgG1 -HRP (Fisher Biotech, Orangeburg, N.Y.) diluted to 0.4 ng/ml in 1% BSA-PBS, for 60 minutes at room temperature; (2) washing plates 6 times with 0.05% Tween-20 in PBS; and (3) adding 100 μl/well ABTS substrate [200 μl ABTS, (Boehringer Mannheim), 10 ml citrate buffer (pH 4), 10 μl H2 O2 ]. Optical density of the reactions products was determined by endpoint analysis on a Multiscan plate reader (Molecular Devices, Menlo Park, Calif.). The competitive inhibition (%) was determined by comparing the reactivity of the positive control to the test samples.
(§1) The TSAR-based peptide (SEQ ID NO 31) concentration ranged from 1.75 to 1130 nM. […] Two additional control peptides (amide form) having the following amino acid sequences: RGD-21: NH2 -[…]-CONH2 (SEQ ID NO 32) and CYT-379: NH2 -[…]-CONH2 (SEQ ID NO 33) were also evaluated. Herein these control peptides are referred to as Control Peptide 1 and Control Peptide 2. […] The B139 monoclonal antibody, which is a murine IgG1 monoclonal antibody that reacts with all human epithelial cells, recognizes a different antigen in the LNCaP extract from that recognized by the 7E11-C5 antibody. The control B139 monoclonal antibody was used at a concentration of 9 ng/ml. The results obtained are illustrated in FIG. 13.
A general note: An ELISA detects its analyte on a solid surface through an enzyme-linked reagent.

For another test, the target named is T1, streptavidin (Streptomyces avidinii, UniProt P22629).
T1 construct: purchased Advanced Magnetics, Cambridge, Mass
T1 sequence (P22629 25-183): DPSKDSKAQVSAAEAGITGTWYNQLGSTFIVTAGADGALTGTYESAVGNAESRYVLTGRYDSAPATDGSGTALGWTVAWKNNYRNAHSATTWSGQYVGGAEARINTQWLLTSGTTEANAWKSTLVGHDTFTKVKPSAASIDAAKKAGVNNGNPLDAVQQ
The test can be described thus: Inhibition of TSAR binding to streptavidin by biotin and biotin analogs. Conditions: for IC50: representative TSARs SA-1, -2, -4 and -14. Here is the method: Specificity of the binding of the identified proteins for streptavidin was investigated by evaluating inhibition of binding by biotin and by a number of biotin analogs, including diaminobiotin, immunobiotin, lipoic acid and imidazalidone. Four representative TSARs, pictured in Table 9, were evaluated, i.e., SA-1,-2, -4 and -14 (SEQ ID NOs. 116, 114, 104 and 117).

Test [3] has as its system 7E11-C5 monoclonal antibody. In words: ELISA of antibody binding to immobilized peptide. The note with it: peptide adsorbed on polyvinylchloride plates, 0.5-500 μg/ml; FIG. 14, 15. Details: species or system mouse. Here is the method:
(§2) Peptides, diluted in 10% PBS (Dulbecco's, pH 7.2, Hazelton), were immobilized by adsorption on polyvinylchloride plates. SEQ ID NO 31 (amide form) was diluted in 10% PBS at 0.5, 5, 50 or 500 μg/ml. Control peptide 2 in 10% PBS at the same range of concentrations served as the control. A 50 μl volume of the test or control peptide solution was added to each well and incubated overnight at 4° C. The peptide solution was removed and 10% BSA-PBS was added as blocking solution. […] Bound 7E11-C5 monoclonal antibody was detected with anti-mouse IgG1 -HRP as described above herein.

For test [4], the system named is B139 monoclonal antibody. The test can be described thus: Competitive binding ELISA: inhibition of B139 binding to LNCaP extract. The note with it: B139 9 ng/ml; FIG. 13. More on the design: species or system murine. The procedure:
as §1

Test [5] concerns B139 monoclonal antibody. The test can be described thus: ELISA of control antibody binding to immobilized peptide. More on the design: species or system murine. The note with it: peptide coated at 5 μg/ml; FIG. 15. The procedure:
as §2

“HSYHDVATTKPGSHCMHNPGHPPPPNCHMAKAHSHNRI [Zn1A12]”: the “relative retention by Zn(II)-IDA” value in test [1] was “exhibit the least retention”.

Turning to “CNFRGQCVSAPQTSNSKSPGWDTTWHDFRKEQFYNLTS [C46-9.2]”, the “competition with CEA for binding to the C46 antibody” value with C46 monoclonal antibody is “competitive binding”.

As for “YDHHSYNGDMHYPGWPPLPGPHHFAPIDVTTHSHTQPD [Zn1A1]”, the “retention on Zn(II)-IDA, of recovered phage” value in test [1] is given as 15%.

Turning to “ATEQHYWTQYHKPYHPSVPGFHVKSVTETTDHWESRNG [Zn1B8]”, in test [1], the “relative retention by Zn(II)-IDA” value was “exhibit the least retention” and the “retention on Zn(II)-IDA, of recovered phage” value is 85%.

Regarding “IDMPETAST MYNMLH RNEPGGRKLSPPANDMPPALLKR [7E11.9-5]”, in the test with 7E11-C5 antibody, the “relative binding to 7E11-C5 (fold less well than the best binders)” value is given as “bound the best”. Further, the “inhibition of 7E11-C5 binding to its antigen by phage” value (“inhibition … by phage” for short) in test [2] is given as “inhibited the binding of 7E11-C5 monoclonal antibody to its antigen, in a dose dependent fashion”.

With “PDYDLMSSTCRFYGCSKMPGGVAVNGLFAVQGHSKYSS [SA-1]”, the “inhibition of TSAR binding to streptavidin by biotin and all the biotin analogs tested” value on streptavidin was “completely inhibited”.

Take RDSAVENPSVGGEIP MYRYLH QR [7E11.12-2]: the “relative binding to 7E11-C5 (fold less well than the best binders)” value with 7E11-C5 antibody was ~ 2 fold.

Turning to imidazalidone, on streptavidin, the IC50 was about 5000 µM.

`N[C@@H]1[C@H](CCCCC(=O)O)SC[C@@H]1N` [diaminobiotin] registered an IC50 at streptavidin of about 0.2 µM.

Consider “NAVRVDSGYPPNPNTFHLPGCIDVLSSGCRLFSAHSEY [C46-9.1]”, for which, in the test with C46 monoclonal antibody, the “competition with CEA for binding to the C46 antibody” value was “competitive binding”.

The compound `N=C1N[C@H]2[C@H](CS[C@H]2CCCCC(=O)O)N1` [immunobiotin] came in with an IC50 at streptavidin of about 3 µM.

Consider “SSCAYARYVPLLLLLYANPG MYSRLH SPAVRPLTQSSA [7E11.9-1]”, for which the “relative binding to 7E11-C5 (fold less well than the best binders)” value in the test with 7E11-C5 antibody was “bound the best”. Moreover, in test [2], the “inhibition … by phage” value is listed as “also inhibited 7E11-C5 monoclonal antibody binding”.

“SVQFKSISSRSMDDVVKDPGPKPA MWKMLH SKNPFTLS [7E11.9-2]”: in the test on 7E11-C5 antibody, the “relative binding to 7E11-C5 (fold less well than the best binders)” value is 5-10 fold.

Take “NH2 -SYGRGDVRGDFKCTCCA-CONH2 (H-SYGRGDVRGDFKCTCCA-NH2; cysteine pairing not given here) [Control Peptide 2]”: the “binding of 7E11-C5 to immobilized peptide” value in test [3] is reported as “did not bind to either of the tested antibodies”. Moreover, the “competitive inhibition of B139 binding to LNCaP extract by peptide” value with B139 monoclonal antibody [4] was “neither SEQ ID NO 31 (amide form) nor either of Control Peptide 1 and Control Peptide 2 competitively inhibited the binding”. For the same compound, in the test on B139 monoclonal antibody [5], the “binding of B139 to immobilized peptide” value was “did not bind to either of the tested antibodies”. In test [2] (peptides, amide form, FIG. 13), the “competitive inhibition of 7E11-C5 binding to LNCaP extract by peptide” value was “did not effectively compete”.

For QKGGPGLLLYGGDS MWITLH EPG [7E11.12-4], the “relative binding to 7E11-C5 (fold less well than the best binders)” value in the test on 7E11-C5 antibody is recorded as 5-10 fold.

With “IAHRVVAYNSLDSNPIWLPGEESSSVFGDY HPMF RAPV [SA-4]”, on streptavidin, the “inhibition of TSAR binding to streptavidin by biotin and all the biotin analogs tested” value is “completely inhibited”.

In the case of PVQKEYGFFMSGAS MIRLLR ETP [7E11.12-3], in the test on 7E11-C5 antibody, the “relative binding to 7E11-C5 (fold less well than the best binders)” value was found to be 50 fold.

Take RLGNVWRVEGGG MYQQLH HNFPX^2 [7E11.12-1]: the “relative binding to 7E11-C5 (fold less well than the best binders)” value in the test on 7E11-C5 antibody is “bound the best”. Moreover, the “inhibition … by phage” value in test [2] was “inhibited the binding of 7E11-C5 monoclonal antibody to its antigen, in a dose dependent fashion”.

In the case of “TVAT MHDTLH SAPGSGNLPGSYDIKPIFKASGALHSTX^2 [7E11.9-4]”, the “relative binding to 7E11-C5 (fold less well than the best binders)” value with 7E11-C5 antibody is reported as 5-10 fold.

`O=C(O)CCCC[C@@H]1CCSS1` (racemic) [lipoic acid] had an IC50 on streptavidin of about 1050 µM.

Consider “FDHTYSGPVCVKNGGLVSPGVLS MYNRLH SDGGPSLAS [7E11.9-3]”, for which the “relative binding to 7E11-C5 (fold less well than the best binders)” value in the test on 7E11-C5 antibody is “bound the best”.

In general, IC50 refers to the midpoint of a concentration-inhibition curve.
